From patent US8507562B2, “Synthesis of (1)-beta-elemene, (-)-beta-elemenal, (-)-beta-elemenol, (-)-beta-elemene fluoride and their analogues, intermediates, and composition and uses thereof” (HYWE Pharmaceuticals, Inc., priority 2004, dated 2013) come the findings set out here.

Converted amounts (≈) assume the structure as drawn. Read-outs that look alike come from different tables or passages of the source.

Assay [1] relates to Colon Cancer Cells HCT-116. The assay is described as follows: MTS cell viability assay. Type of assay: cell-based, human. The settings on record: combinations with Elemene 160 μg/ml, n = 8. In general terms: Tetrazolium assays rely on reduction of a dye to a coloured formazan, in cell work by metabolically active cells.
For assay [2], the system named is Colon Cancer Cells HCT-15. As to the kind of experiment: MTS cell viability assay. The settings on record: combinations with Elemene 160 μg/ml, n = 8.
Protocol: (§1) Cells were maintained at 37° C. in a humidified atmosphere including 5% CO2. […] Drugs were dissolved in 100% DMSO and then diluted in medium for experiments.
Assay [3] concerns Colon Cancer Cells Colo 205. As to the kind of experiment: MTS cell viability assay. Particulars: Colo 205, drug alone.
Protocol: as §1
Assay [4] deals with human glioma cells. As to the kind of experiment: MTT assay, elemene analogs. Type of assay: cell-based. The settings on record: for IC50: Homo sapiens, Glioma cell.
Protocol: (§2) The MTT assay is a commonly used method in evaluation of cell survival, based on the ability of viable cells to convert MTT, a soluble tetrazolium salt [3-(4,5-dimethylthuazole-2-yl)-2,5 diphenyl tetrazolium bromide], into an insoluble formazan precipitate, which is quantitated by spectrophotometry following solubilization in dimethyl sulfoxide (DMSO).
(§3) The cells were then solubilized in 125 μl of DMSO and absorbance readings were taken using a 96-well Opsys MRI Microplate Reader (ThermoLabsystems; Chantilly, Va.). The amount of MTT dye reduction was calculated based on the difference between absorbance at 570 nm and at 630 nm. Cell viability in treated cells was expressed as the amount of dye reduction relative to that of untreated control cells. The wells which contained only medium and 10 μl of MTT were used as blanks for the plate reader. Three sets of experiments were performed in 8-12 wells for each treatment.
The subject of assay [5] is human lung cancer A549. Particulars: 30 mg/kg/time ip × 7 qd.
The test system of assay [6] is human liver cancer QGY. The settings on record: 30 mg/kg/time ip × 7 qd.
Assay [7] concerns human breast cancer ao10/17. The settings on record: 30 mg/kg/time ip × 7 qd.
The subject of assay [8] is human prostate cancer PC-3M. Particulars: 30 mg/kg/time ip × 7 qd.
The test system of assay [9] is human colon cancer HCT-8. The settings on record: 30 mg/kg/time ip × 7 qd.
In assay [10] the test system is human breast cancer Bcap-37. Particulars: 30 mg/kg/time ip × 7 qd.
The subject of assay [11] is H-460 lung cancer. The assay is described as follows: MTT survival assay. Format: cell-based, human. The settings on record: 2 × 10^4 cells/ml.
Protocol: as §2, §3
(§4) In brief, carcinoma cells treated with test articles alone, in 96-well tissue culture dishes were incubated with MTT (2 μg/ml) for 4 h. The cells were then solubilized in 125 μl of DMSO and absorbance readings were taken using a 96-well Opsys MRI Microplate Reader (ThermoLabsystems; Chantilly, Va.). The amount of MTT dye reduction was calculated based on the difference between absorbance at 570 nm and at 630 nm. Cell viability in treated cells was expressed as the amount of dye reduction relative to that of untreated control cells. The wells that contained only medium and 10 μl of MTT were used as blanks for the plate reader.
(§5) The cells were then solubilized in 125 μl of DMSO and absorbance readings were taken using a 96-well Opsys MRI Microplate Reader (ThermoLabsystems; Chantilly, Va.). The amount of MTT dye reduction was calculated based on the difference between absorbance at 570 nm and at 630 nm. Cell viability in treated cells was expressed as the amount of dye reduction relative to that of untreated control cells. The wells which contained only medium and 10 μI of MTT were used as blanks for the plate reader. Three sets of experiments were performed in 8-12 wells for each treatment.
In assay [12] the test system is A549 lung cancer. As to the kind of experiment: MTT survival assay. The settings on record: 2 × 10^4 cells/ml.
Protocol: as §2, §4
In assay [13] the test system is A-172 brain tumor. As to the kind of experiment: MTT survival assay. Format: cell-based, human. The settings on record: Homo sapiens, A 172, read-out: IC50.
Protocol: as §2, §3, §5
Assay [14] has as its system U-87 brain tumor. As to the kind of experiment: MTT survival assay. Type of assay: cell-based, human. The settings on record: Homo sapiens, read-out: IC50.
Protocol: as §2, §3, §5
In assay [15] the test system is STTG1 brain tumor. As to the kind of experiment: MTT survival assay. Type of assay: cell-based, human. The settings on record: Homo sapiens, read-out: IC50.
Protocol: as §2, §3

As usually defined, the IC50 is the midpoint of a concentration-inhibition curve.

With `O=C1[O][Pt]2([NH][C@@H]3CCCC[C@H]3[NH]2)[O]C1=O` [Oxaliplatin], the IC50 is 106 ± 15.7 µg/mL in [1] (HCT-116, 4 hr/24 hr × 2); 65.7 ± 7.02 µg/mL in assay [1] (HCT-116, 4 hr/24 hr × 3); 148 ± 13.7 µg/mL in assay [1] (HCT-116, 4 hr/24 hr); 373 ± 69.6 µg/mL in assay [1] (HCT-116, 4 hr); 92.2 ± 15.7 µg/mL in assay [1] (HCT-116, 8 hr); 74.4 ± 6.28 µg/mL in assay [1] (HCT-116, 12 hr). Further, the IC50 in assay [1] (HCT-116, 24 hr) was found to be 68.9 ± 7.92 µg/mL; in assay [1] (HCT-116, 48 hr), 64.5 ± 7.89 µg/mL; in assay [1] (HCT-116, 72 hr) it was 57.2 ± 10.5 µg/mL; in assay [2] (HCT-15, 4 hr/24 hr × 2), 16.4 ± 4.64 µg/mL; in assay [2] (HCT-15, 4 hr/24 hr × 3) it was 11.8 ± 3.69 µg/mL; in assay [2] (HCT-15, 4 hr/24 hr) it was 22.0 ± 7.66 µg/mL. The IC50 in assay [2] (HCT-15, 4 hr) turned out to be 28.4 ± 6.80 µg/mL; in [2] (HCT-15, 8 hr) it was 25.7 ± 5.61 µg/mL; in assay [2] (HCT-15, 12 hr), 19.3 ± 3.21 µg/mL; in assay [2] (HCT-15, 48 hr), 14.5 ± 2.66 µg/mL; in assay [2] (HCT-15, 72 hr), 14.9 ± 3.33 µg/mL; in assay [3] (Time 4 hr, n = 8) it was 166 ± 7.51 µg/mL. Also, the IC50 in assay [3] (Time 4 hr/24 hr × 2, n = 8) is 21.8 ± 1.06 µg/mL; in assay [3] (Time 4 hr/24 hr × 3, n = 8) it was 9.90 ± 1.01 µg/mL; in [3] (Time 4 hr/24 hr, n = 8), 29.5 ± 7.05 µg/mL; in assay [3] (Time 8 hr, n = 8), 124 ± 13.1 µg/mL; in assay [3] (Time 12 hr, n = 8) it was 69.7 ± 12.7 µg/mL; in assay [3] (Time 24 hr, n = 8) it was 25.2 ± 7.85 µg/mL. In addition, the IC50 in [3] (Time 48 hr, n = 8) was 20.4 ± 2.14 µg/mL; in [3] (Time 72 hr, n = 8) it was 13.4 ± 2.42 µg/mL.
Take “(1S,5S)-3,5-Diisopropenyl-2-methyl-cyclohex-2-enol, and (1R,5S)-3,5-Diisopropenyl-2-methyl-cyclohex-2-enol [Lr-7]”: the “IC50 in human glioma cells” value in assay [4] (24 hr), in assay [4] (48 hr) and in assay [4] (72 hr) was above 200 µg/mL in each case.
Take “(S)-5-Isopropenyl-1,2-dimethyl-cyclohex-2-enol, and (R)-5-Isopropenyl-1,2-dimethyl-cyclohex-2-enol [Lr-5]”: the “IC50 in human glioma cells” value in assay [4] (24 hr), in assay [4] (48 hr) and in assay [4] (72 hr) was above 200 µg/mL in each case.
With `O=P1(N(CCCl)CCCl)NCCCO1` (stereo not shown) [CTX, Cyclophosphamide, reference compound], the “Inhibition Rate %” value in assay [5] is 85.13%; in assay [6], 89.37%; in assay [7], 87.50%; in [8], 87.27%; in assay [9], 88.11%; in assay [10] it was 84.23%. The “Tumor Weight (g) X ± SD” value in [5] is listed as 0.29 ± 0.07 g; in assay [6], 0.22 ± 0.12 g; in [7], 0.15 ± 0.08 g; in assay [8], 0.205 ± 0.1 g; in [9], 0.170 ± 0.08 g; in [10] it was 0.205 ± 0.12 g.
For `C=C(C)C1=C(C)C(=O)C[C@@H](C(=C)C)C1` [Lr-6, (S)-3,5-Diisopropenyl-2-methyl-cyclohex-2-enone], the IC50 in [4] (24 hr), in assay [4] (48 hr) and in assay [4] (72 hr) was above 200 µg/mL throughout.
As to (−)-Beta-elemene Fluoride, the IC50 came out at 71.3 µg/mL in [11] (H460, 24 h); 62.5 µg/mL in assay [11] (H460, 48 h); 68.6 µg/mL in [11] (H460, 72 h); 83.0 µg/mL in assay [12] (A549, 24 h); 64.5 µg/mL in assay [12] (A549, 48 h); 71.4 µg/mL in assay [12] (A549, 72 h).
Turning to `C=C[C@]1(C)CC[C@@H]([C@@](C)(O)CO)C[C@H]1C(=C)C` (single isomer, unassigned) [Lr-1], the IC50 in [13] (A172, 24 h) turned out to be 106 µg/mL (≈ 445 µM); in assay [13] (A172, 48 h), 94 µg/mL (≈ 394 µM); in assay [13] (A172, 72 h), 90 µg/mL (≈ 378 µM); in [14] (U87, 24 h), 98 µg/mL (≈ 411 µM); in assay [14] (U87, 48 h), 94 µg/mL (≈ 394 µM); in [14] (U87, 72 h), 89 µg/mL (≈ 373 µM). Also, the IC50 in assay [15] (STTG1, 24 h) amounted to 108 µg/mL (≈ 453 µM); in assay [15] (STTG1, 48 h) it was 98 µg/mL (≈ 411 µM); in [15] (STTG1, 72 h), 94 µg/mL (≈ 394 µM).
With `C=C[C@]1(C)CC[C@@H]([C@](C)(O)CO)C[C@H]1C(=C)C` [Lr-2, (S)-2-((1R,3S,4S)-3-isopropenyl-4-methyl-4-vinyl-cyclohexyl)-propane-1,2-diol], the IC50 in assay [13] (A172, 24 h) stood at 122 µg/mL (≈ 512 µM); in [13] (A172, 48 h), 96 µg/mL (≈ 403 µM); in assay [13] (A172, 72 h) it was 65 µg/mL (≈ 273 µM); in [14] (U87, 24 h) it was 90 µg/mL (≈ 378 µM); in [14] (U87, 48 h) it was 94 µg/mL (≈ 394 µM); in [14] (U87, 72 h), 87 µg/mL (≈ 365 µM). Also, the IC50 in [15] (STTG1, 24 h) was 112 µg/mL (≈ 470 µM); in assay [15] (STTG1, 48 h), 98 µg/mL (≈ 411 µM); in [15] (STTG1, 72 h) it was 97 µg/mL (≈ 407 µM); in assay [4] (48 hr), 89.6 µg/mL (≈ 376 µM); in assay [4] (72 hr), 90.9 µg/mL (≈ 381 µM).
As to “(S)-1,5-Diisopropenyl-2-methyl-cyclohex-2-enol, and (R)-1,5-Diisopropenyl-2-methyl-cyclohex-2-enol [Lr-4]”, the “IC50 in human glioma cells” value in assay [4] (24 hr), in assay [4] (48 hr) and in assay [4] (72 hr) was above 200 µg/mL in each case.
For `C=C(C)[C@H]1CC=C(C)C(=O)C1` [Lr-9, (S)-5-Isopropenyl-2-methyl-cyclohex-2-enone], the IC50 in assay [4] (24 hr), in assay [4] (48 hr) and in assay [4] (72 hr) was above 200 µg/mL in each case.
In the case of `C=C[C@]1(C)CC[C@@H](C(=C)C=O)C[C@H]1C(=C)C` [(−)-beta-elemenal, (−)-Beta-elemenal], the IC50 came out at 27.6 µg/mL (≈ 126 µM) in assay [11] (H460, 24 h); 25.5 µg/mL (≈ 117 µM) in [11] (H460, 48 h); 11.0 µg/mL (≈ 50.4 µM) in [11] (H460, 72 h); 45.6 µg/mL (≈ 209 µM) in assay [12] (A549, 24 h); 35.0 µg/mL (≈ 160 µM) in assay [12] (A549, 48 h); 35.0 µg/mL (≈ 160 µM) in assay [12] (A549, 72 h).
Regarding `C=C(C)[C@@H]1CC=C(C)C(=O)C1` [Lr-10, (R)-5-Isopropenyl-2-methyl-cyclohex-2-enone], the IC50 in [4] (24 hr), in [4] (48 hr) and in [4] (72 hr) was above 200 µg/mL each time.
As to `C=C[C@]1(C)CC[C@@H](C(C)=O)C[C@H]1C(=C)C` [Lr-3, 1-((1R,3S,4S)-3-Isopropenyl-4-methyl-4-vinyl-cyclohexyl)-ethanone], the IC50 is above 140 µg/mL in [13] (A172, 24 h); 134 µg/mL (≈ 649 µM) in assay [13] (A172, 48 h); 106 µg/mL (≈ 514 µM) in assay [13] (A172, 72 h); 118 µg/mL (≈ 572 µM) in assay [14] (U87, 24 h); above 120 µg/mL in [14] (U87, 48 h); 120 µg/mL (≈ 582 µM) in assay [14] (U87, 72 h). The IC50 was 108 µg/mL (≈ 523 µM) in assay [15] (STTG1, 24 h); above 120 µg/mL in assay [15] (STTG1, 48 h); 110 µg/mL (≈ 533 µM) in assay [15] (STTG1, 72 h); above 200 µg/mL in assay [4] (24 hr); above 200 µg/mL in [4] (48 hr); above 200 µg/mL in assay [4] (72 hr).
“(1R,5S)-1-Isobutyl-3,5-diisopropenyl-2-methyl-cyclohex-2-enol, and (1S,5S)-1-Isobutyl-3,5-diisopropenyl-2-methyl-cyclohex-2-enol [Lr-8]”: the “IC50 in human glioma cells” value in assay [4] (24 hr) is 106.2 µg/mL; in assay [4] (48 hr), 105.2 µg/mL; in assay [4] (72 hr), 103.3 µg/mL.
